In patent US6608086B2, “Dihydropyridines and new uses thereof” (Synaptic Pharmaceutical Corporation, priority 1993, dated 2003):
Where a name gives a salt, the structure may show the parent alone.

Legend:
[1] = target: T1, α1A Human Adrenergic Receptor (Homo sapiens, UniProt P25100); assay: Radioligand binding, [3H]prazosin, cloned human α1A adrenergic receptor; conditions: [3H]prazosin, cloned human receptor, LM(tk-) cell membranes; mean; read-out: PKi alpha-1 1a (converted)
T1 construct: The entire coding region of α1A (1719 bp); expressed in transfected cells
T1 sequence (P25100 1-572): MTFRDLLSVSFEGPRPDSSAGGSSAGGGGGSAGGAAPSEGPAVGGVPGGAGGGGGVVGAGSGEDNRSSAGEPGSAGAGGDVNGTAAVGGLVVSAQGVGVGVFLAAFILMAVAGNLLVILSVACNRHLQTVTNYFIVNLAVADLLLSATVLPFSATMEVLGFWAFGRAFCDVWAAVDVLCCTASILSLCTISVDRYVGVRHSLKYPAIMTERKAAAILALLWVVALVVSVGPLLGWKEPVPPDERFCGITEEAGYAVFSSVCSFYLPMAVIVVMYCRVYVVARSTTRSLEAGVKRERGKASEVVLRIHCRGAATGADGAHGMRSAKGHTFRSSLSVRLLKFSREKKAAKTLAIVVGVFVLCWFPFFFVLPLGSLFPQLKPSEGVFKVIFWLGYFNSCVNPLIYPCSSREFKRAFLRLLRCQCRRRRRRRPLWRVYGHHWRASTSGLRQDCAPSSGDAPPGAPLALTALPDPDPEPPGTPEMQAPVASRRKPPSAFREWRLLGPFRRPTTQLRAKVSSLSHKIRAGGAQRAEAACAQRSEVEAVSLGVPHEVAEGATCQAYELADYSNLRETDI
Protocol: The protocols for these experiments are given below.
These cell lines were prepared by transfecting the cloned cDNA or cloned genomic DNA or constructs containing both genomic DNA and cDNA encoding the human α-adrenergic receptors as follows:
α1A Human Adrenergic Receptor:
The cells were grown, in a controlled environment (37° C., 5% CO2), as monolayers in Dulbecco's modified Eagle's Medium (GIBCO, Grand Island, N.Y.) containing 25 mM glucose and supplemented with 10% bovine calf serum, 100 units/ml penicillin g, and 100 μg/ml streptomycin sulfate.
Radioligand Binding Assays:
Transfected cells from culture flasks were scraped into 5 ml of 5 mM Tris-HCl, 5 mM EDTA, pH 7.5, and lysed by sonication. The cell lysates were centrifuged at 1000 rpm for 5 min at 4° C., and the supernatant was centrifuged at 30,000× g for 20 min at 4° C. The pellet was suspended in 50 mM Tris-HCl, 1 mM MgCl2, and 0.1% ascorbic acid at pH 7.5. Binding of the α1 antagonist [^3H]prazosin (0.5 nM, specific activity 76.2 Ci/mmol) to membrane preparations of LM(tk−) cells was done in a final volume of 0.25 ml and incubated at 37° C. for 20 min. Nonspecific binding was determined in the presence of 10 μM phentolamine. The reaction was stopped by filtration through GF/B filters using a cell harvester.

Compound	melting point	Ki [1] [nM]
CC1=C(C#N)C(c2ccc([N+](=O)[O-])cc2)C(C(=O)NCCCN2CCC(c3ccccc3)(c3ccccc3)CC2)=C(C)N1 (stereo not shown) (as salt: hydrochloride) [Example 37]	252 °C (dec.)	–
COc1cc2c(cc1OC)CN(CCCNC(=O)C1=C(C)NC(C)=C(C(N)=O)C1c1ccc([N+](=O)[O-])cc1)CC2 (stereo not shown) (as salt: hydrochloride) [Example 58, 5-Carboxamido-1,4-dihydro-3-{N-[3-(1,2,3,4-tetrahydro-6,7-dimethoxyisoquinolin-2-yl)propyl]}carboxamido-2,6-dimethyl-4-(4-nitrophenyl)pyridine hydrochloride]	180 to 181 °C	–
CCC1=C(C(=O)NC2CCN(Cc3ccccc3)CC2)C(c2ccc([N+](=O)[O-])cc2)C(C(=O)OC)=C(C)N1 (stereo not shown) (as salt: hydrochloride) [Example 75, 2-Ethyl-1,4-dihydro-5-methoxycarbonyl-6-methyl-4-(4-nitro)phenyl-3-(N-(N-phenylmethyl)piperidin-4-yl)carboxamidopyridine hydrochloride]	221 to 224 °C (dec.)	–
CCC1=C(C(=O)NCCCN2CCC(c3ccccc3)(c3ccccc3)CC2)C(c2ccc([N+](=O)[O-])cc2)C(C(N)=O)=C(C)N1 (stereo not shown) (as salt: hydrochloride) [Example 81, 5-carboxamido-2-ethyl-1,4-dihydro-6-methyl-4-(4-nitro)phenyl-3-(N-(3-(4,4-diphenylpiperidin-1-yl)propyl))carboxamidopyridine hydrochloride]	243 to 248 °C (dec.)	–
COc1ccc(C2(c3ccccc3)CCN(CCCNC(=O)C3=C(C)NC(C)=C(C(N)=O)C3c3ccc([N+](=O)[O-])cc3)CC2)cc1 (stereo not shown) (as salt: hydrochloride) [Example 98, 5-Carboxamido-1,4-dihydro-3-{N-[3-(4-(4-methoxyphenyl)-4-phenylpiperidin-1-yl)propyl]}carboxamido-2,6-dimethyl-4-(4-nitrophenyl)pyridine hydrochloride]	185 °C (dec.)	–
CCC1=C(C(N)=O)C(c2ccc([N+](=O)[O-])cc2)C(C(=O)NCCCN2CCC(c3ccc(OC)cc3)(c3ccc(OC)cc3)CC2)=C(CC)N1 (stereo not shown) (as salt: hydrochloride) [Example 103, 5-Carboxamido-2,6-diethyl-1,4-dihydro-3-{N-[3-(4,4-bis-(4-methoxyphenyl)piperidin-1-yl)propyl]}carboxamido}-4-(4-nitrophenyl)pyridine hydrochloride]	175 °C (dec.)	–
CCC1=C(C(=O)NCCCN2CCC(c3ccccc3)(c3ccccc3)CC2)C(c2ccc([N+](=O)[O-])cc2)C(C(=O)NC)=C(COCCN=[N+]=[N-])N1 (stereo not shown) (as salt: hydrochloride) [Example 151, 2-((2-Azidoethyl)oxy)methyl-6-ethyl-1,4-dihydro-3-(N-methyl)carboxamido-4-(4-nitro)phenyl-5-(N-(3-(4,4-diphenylpiperidin-1-yl)propyl))carboxamidopyridine]	200 °C (dec.)	–
CCC1=C(C(=O)NCCCN2CCC(c3ccccc3)(c3ccccc3)CC2)C(c2ccc(N)cc2)C(C(=O)OC)=C(C)N1 (stereo not shown) (as salt: salt) [Example 114, 4-(4-Aminophenyl)-2-ethyl-1,4-dihydro-5-methoxycarbonyl-6-methyl-3-(N-(3-(4,4-diphenylpiperidin-1-yl)propyl)carboxamido)-pyridine]	169 to 172 °C (dec.)	–
COC(=O)C1=C(C)N(C)C(C)=C(C(=O)OCCCN2CCC(c3ccccc3)(c3ccccc3)CC2)C1c1ccc([N+](=O)[O-])cc1.Cl.O (stereo not shown) (hydrate or solvate) [Example 92, 1,4-Dihydro-5-methoxycarbonyl-1,2,6-trimethyl-4-(4-nitrophenyl)-3-[3-(4,4-diphenylpiperidin-1-yl)propoxy]carbonylpyridine hydrochloride hydrate]	127 to 128 °C	–
CCC1=C(C(=O)OCCC#N)C(c2ccc([N+](=O)[O-])cc2)C(C(=O)NCCCN2CCC(c3ccccc3)(c3ccccc3)CC2)=C(COC)N1 (stereo not shown) (hydrate or solvate) [Example 135]	120 to 125 °C	–
COC(=O)C1=C(C)NC(C)=C(C(=O)NCCCN2CCC(c3ccccc3)CC2)C1c1ccc([N+](=O)[O-])cc1 (racemic) (as salt: hydrochloride) (hydrate or solvate) [(±)-45, (±)-1,4-Dihydro-3-methoxycarbonyl-2,6-dimethyl-4-(4-nitrophenyl)-5-{N-[3-(4-phenylpiperidin-1-yl)propyl]}carboxamidopyridine hydrochloride hemihydrate]	160 °C	–
CCC1=C(C(N)=O)C(c2ccc([N+](=O)[O-])cc2)C(C(=O)NCCCN2CCC(C#N)(c3ccccc3)CC2)=C(CC)N1 (racemic) (as salt: hydrochloride) (hydrate or solvate) [(±)-102, 5-Carboxamido-3-{N-[(4-cyano-4-phenylpiperidin-1-ly)propyl]carboxamido-2,6-diethyl-1,4-dihydro-4-(4-nitrophenyl)pyridine hydrochloride hydrate]	230 °C (dec.)	–
CCOC(=O)C1(c2ccccc2)CCN(CCCNC(=O)C2=C(C)NC(C)=C(C(=O)NC)C2c2ccc([N+](=O)[O-])cc2)CC1 (stereo not shown) [Example 188, 1,4-Dihydro-2,6-dimethyl-3-{N-[3-(4-ethoxycarbonyl-4-phenyl-piperidin-1-yl)propyl]}carboxamide-5-(N-methyl)carboxam ido-4-(4nitrophenyl)pyridine]	112 to 113 °C	–
COC(=O)C1(c2ccccc2)CCN(CCCNC(=O)C2=C(C)NC(C)=C(C(=O)OCCC#N)C2c2ccc([N+](=O)[O-])cc2)CC1 (stereo not shown) [Example 203, 5-(2-Cyanoethoxycarbonyl)-1,4-dihydro-2,6-dimethyl-3-{N-[3-(4-methoxycarbonyl-4-phenylpiperidin-1-yl)propyl]}carbo xamido-4-(4-nitrophenyl)pyridine]	73 to 74 °C	759
CCNC(=O)C1=C(C)NC(C)=C(C(=O)NCCCN2CCC(C(=O)OC)(c3ccccc3)CC2)C1c1ccc([N+](=O)[O-])cc1 (stereo not shown) [Example 205, 1,4-Dihydro-2,6-dimethyl-5-(N-ethyl)carboxamido-3-{N-[3-(4-methoxycarbonyl-4-phenylpiperidin-1-yl)propyl]}carboxamido-4-(4-nitrophenyl)pyridine]	117 to 118 °C	–
